According to patent US10457707B2, “Substituted urea depsipeptide analogs as activators of the CLPP endopeptidase” (priority 2015, dated 2019):
Values after ≈ are worked out from the molar mass of the structure shown. Like-named read-outs stand apart in the source and are kept apart here. *1 amine or outer side, *2 acyl side, *3 side chain or, on linkers, in order; H or OH if unused. Where a SMILES comes first, the peptide text is derived from it. Bridges are numbered along the chain shown (N, C = ends). [ ]: non-standard residue; d: D form. The star is where a group is joined. ξ: configuration not given here. Phe(3,5-F2) = N[C@@H](Cc1cc(F)cc(F)c1)C(=O)O; NH(4-OCF3-phenyl) = FC(F)(F)Oc1ccc(N*)cc1; Morpholine(3S-CO) = O=C(O)[C@@H]1COCCN1; Pro(4S-Me) = C[C@@H]1CN[C@H](C(=O)O)C1; Pro(4R-Me) = C[C@H]1CN[C@H](C(=O)O)C1; NMeaThr = CN[C@H](C(=O)O)[C@H](C)O; Hyp = O=C(O)[C@@H]1C[C@@H](O)CN1; NH(4-Et-phenyl) = CCc1ccc(N*)cc1; NMeT = CN[C@H](C(=O)O)[C@@H](C)O; NH(4-Me-phenyl) = Cc1ccc(N*)cc1; ξNMeThr = CNC(C(=O)O)[C@@H](C)O; aThr = C[C@H](O)[C@H](N)C(=O)O; Pip = O=C(O)[C@@H]1CCCCN1; NMeA = CN[C@@H](C)C(=O)O; CO = O=C([*:1])[*:2]; ξP = O=C(O)C1CCCN1

What was measured:
[1] = biological target: T1, Sa-ClpP (Staphylococcus aureus, UniProt Q2G036); test: ADEP displacement fluorescence polarization assay (FP probe ADEP 2591); type: binding
T1 construct: made in house; host or cells: E. coli BL21(DE3)
T1 sequence (Q2G036 1-195): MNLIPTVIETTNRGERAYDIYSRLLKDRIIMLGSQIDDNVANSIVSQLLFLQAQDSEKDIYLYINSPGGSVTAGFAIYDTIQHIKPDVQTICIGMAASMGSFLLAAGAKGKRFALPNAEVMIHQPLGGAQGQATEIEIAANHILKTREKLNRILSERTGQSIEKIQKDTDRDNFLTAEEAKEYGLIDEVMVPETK
How it was run: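 Master mix of 15 μM S. aureus ClpP with 50 nM TAMRA-labelled ADEP 2591 probe in Tris-HCl pH 8.0, 2% DMSO, was pre-equilibrated 1 h, then incubated with compound 120 min at room temperature. Polarization (ex 530, em 579 nm) was normalized to 200 μM ADEP 2378 and DMSO controls; four-parameter fits, triplicate.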

[2] = system: Bacillus subtilis, ATCC 23857; test: Minimal inhibitory concentration assay (microbroth dilution); type: cell-based
How it was run: (§1)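 CLSI broth microdilution; 2-fold series from 200 μM final; inoculum ~10^5 cfu/mL; 37 °C, aerobic, overnight; visual MIC = lowest conc. without growth. The ClpP-inactivated USA 300 strain is the comparator for ClpP-dependent killing.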

[3] = system: Staphylococcus aureus, ATCC 29213; test: as above; type: cell-based; conditions: ATCC29213, read-out: Minimal Inhibitory Concentrations S. aureus ATCC 29213
How it was run: as §1

[4] = system: Staphylococcus aureus, NRS70; test: as above; type: cell-based
How it was run: as §1

[5] = system: Streptococcus pyogenes, ATCC 700294; test: as above; type: cell-based
How it was run: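 CLSI broth microdilution: two-fold serial compound dilutions in appropriate broth, inoculated and incubated aerobically overnight at 37° C. MIC read visually as lowest concentration preventing bacterial growth.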

[6] = Bacillus subtilis, ATCC23857; read-out: Minimal Inhibitory Concentrations B. subtilis ATCC 23857
[7] = Staphylococcus aureus, NRS70; read-out: Minimal Inhibitory Concentrations S. aureus NRS70
[8] = Streptococcus pyogenes, ATCC700294; read-out: Minimal Inhibitory Concentrations S. pyogenes ATCC 700294
[9] = Bacillus subtilis, ATCC23857, read-out: Minimal Inhibitory Concentrations B. subtilis ATCC 23857
[10] = Staphylococcus aureus, NRS70, read-out: Minimal Inhibitory Concentrations S. aureus NRS70
[11] = Streptococcus pyogenes, ATCC700294, read-out: Minimal Inhibitory Concentrations S. pyogenes ATCC 700294
[12] = displacement of FP probe ADEP 2591 from Sa-ClpP, read-out: ADEP Displacement IC50

Compound: CCc1ccc(NC(=O)N[C@@H](Cc2cc(F)cc(F)c2)C(=O)N[C@@H]2C(=O)N3CCC[C@H]3C(=O)N(C)[C@@H]([C@@H](C)O)C(=O)N[C@@H](C)C(=O)N3C[C@@H](C)C[C@H]3C(=O)O[C@H]2C)cc1 [Compound 37, (S)-3-(3,5-difluorophenyl)-2-(3-(4-ethylphenyl)ureido)-N-((2S,6S,9S,11aS,17S,18S,20aS)-9-((R)-1-hydroxyethyl)-2,6,10,18-tetramethyl-5,8,11,16,20-pentaoxohexadecahydro-1H,5H,16H-dipyrrolo[2,1-c:2′,1′-l][1]oxa[4,7,10,13]tetraazacyclohexadecin-17-yl)propanamide] ({NH(4-Et-phenyl)-CO}-[Phe(3,5-F2)][aThr]P[NMeT]A[Pro(4S-Me)]; ester 2-C)
- IC50 [1]: 7 ± 0.4 µM
- MIC [2, 6]: 0.05 µM (≈ 0.0413 µg/mL)
- MIC [3]: 0.1 µM (≈ 0.0826 µg/mL)
- MIC [4, 7]: 0.1 µM (≈ 0.0826 µg/mL)
- MIC [5, 8]: 0.1 µM (≈ 0.0826 µg/mL)

Compound: C[C@@H]1NC(=O)[C@H](C)N(C)C(=O)[C@@H]2CCCN2C(=O)[C@@H](NC(=O)[C@H](Cc2ccccc2)NC(=O)Nc2ccc(OC(F)(F)F)cc2)COC(=O)C2CCCN2C1=O (stereo partly drawn) [Compound 213, (2S)-3-phenyl-2-(3-(4-(trifluoromethoxy)phenyl)ureido)-N-((6S,9S,11aS,17S)-6,9,10-trimethyl-5,8,11,16,20-pentaoxohexadecahydro-1H,5H,16H-dipyrrolo[2,1-c:2′,1′-l][1]oxa[4,7,10,13]tetraazacyclohexadecin-17-yl)propanamide] ({NH(4-OCF3-phenyl)-CO}-FSP[NMeA]A[ξP]; ester 2-C)
- IC50 [1]: 5 ± 0.4 µM
- MIC [2, 6]: < 0.2 µM
- MIC [3]: 3.12 µM (≈ 2.46 µg/mL)
- MIC [4, 7]: 0.78 µM (≈ 0.614 µg/mL)
- MIC [5, 8]: 0.39 µM (≈ 0.307 µg/mL)

Compound: CCc1ccc(NC(=O)N[C@@H](Cc2cc(F)cc(F)c2)C(=O)N[C@@H]2C(=O)N3C[C@H](O)C[C@H]3C(=O)N3CCCC[C@H]3C(=O)N[C@@H](C)C(=O)N3C[C@H](C)C[C@H]3C(=O)O[C@H]2C)cc1 [Compound 211, (S)-3-(3,5-difluorophenyl)-2-(3-(4-ethylphenyl)ureido)-N-((2R,6S,8aS,14aS,16R,20S,21S,23aS)-16-hydroxy-2,6,21-trimethyl-5,8,14,19,23-pentaoxooctadecahydro-1H,5H,14H,19H-pyrido[2,1-i]dipyrrolo[2,1-c:2′,1′-l][1]oxa[4,7,10,13]tetraazacyclohexadecin-20-yl)propanamide] ({NH(4-Et-phenyl)-CO}-[Phe(3,5-F2)][aThr][Hyp][Pip]A[Pro(4R-Me)]; ester 2-C)
- IC50 [1]: 6.8 ± 0.3 µM
- MIC [2, 6]: 0.8 µM (≈ 0.67 µg/mL)
- MIC [3]: 0.04 µM (≈ 0.0335 µg/mL)
- MIC [4, 7]: 0.02 µM (≈ 0.0168 µg/mL)
- MIC [5, 8]: < 0.2 µM

Compound: C[C@H]1C[C@H]2C(=O)O[C@@H](C)[C@H](NC(=O)[C@H](Cc3cc(F)cc(F)c3)NC(=O)Nc3ccc(OC(F)(F)F)cc3)C(=O)N3CCC[C@H]3C(=O)N(C)[C@@H]([C@@H](C)O)C(=O)N[C@@H](C)C(=O)N2C1 [Compound 36, (S)-3-(3,5-difluorophenyl)-N-((2S,6S,9S,11aS,17S,18S,20aS)-9-((R)-1-hydroxyethyl)-2,6,10,18-tetramethyl-5,8,11,16,20-pentaoxohexadecahydro-1H,5H,16H-dipyrrolo[2,1-c:2′,1′-l][1]oxa[4,7,10,13]tetraazacyclohexadecin-17-yl)-2-(3-(4-(trifluoromethoxy)phenyl)ureido)propanamide] ({NH(4-OCF3-phenyl)-CO}-[Phe(3,5-F2)][aThr]P[NMeT]A[Pro(4S-Me)]; ester 2-C)
- IC50 [1]: 6.4 ± 0.5 µM
- MIC [2, 6]: 0.1 µM (≈ 0.0882 µg/mL)
- MIC [3]: 0.1 µM (≈ 0.0882 µg/mL)
- MIC [4, 7]: 0.05 µM (≈ 0.0441 µg/mL)
- MIC [5, 8]: 0.2 µM (≈ 0.176 µg/mL)

Compound: Cc1ccc(NC(=O)N[C@@H](Cc2cc(F)cc(F)c2)C(=O)N[C@H]2COC(=O)[C@@H]3C[C@@H](C)CN3C(=O)[C@H](C)NC(=O)[C@@H]3COCCN3C(=O)[C@@H]3C[C@@H](O)CN3C2=O)cc1 [Compound 317, (S)-3-(3,5-difluorophenyl)-N-((6aS,8R,12S,15aS,17R,21S,23aS)-8-hydroxy-17,21-dimethyl-6,11,15,20,23-pentaoxooctadecahydro-6H,11H,15H-[1,4]oxazino[3,4-i]dipyrrolo[2,1-c:2′,1′-l][1]oxa[4,7,10,13]tetraazacyclohexadecin-12-yl)-2-(3-(p-tolyl)ureido)propanamide] ({NH(4-Me-phenyl)-CO}-[Phe(3,5-F2)]S[Hyp][Morpholine(3S-CO)]A[Pro(4R-Me)]; ester 2-C)
- IC50 [1]: 7.25 ± 0.5 µM
- MIC [2, 9]: 10 µM (≈ 8.12 µg/mL)
- MIC [3]: 2.5 µM (≈ 2.03 µg/mL)
- MIC [4, 10]: 2.5 µM (≈ 2.03 µg/mL)
- MIC [5, 11]: 0.156 µM (≈ 0.127 µg/mL)

Compound: CCc1ccc(NC(=O)N[C@@H](Cc2cc(F)cc(F)c2)C(=O)N[C@@H]2C(=O)N3C[C@H](O)C[C@H]3C(=O)N3CCOC[C@H]3C(=O)N[C@@H](C)C(=O)N3C[C@H](C)C[C@H]3C(=O)O[C@H]2C)cc1 [Compound 320, (S)-3-(3,5-difluorophenyl)-2-(3-(4-ethylphenyl)ureido)-N-((6aS,8R,12S,13S,15aS,17R,21S,23aS)-8-hydroxy-13,17,21-trimethyl-6,11,15,20,23-pentaoxooctadecahydro-6H,11H,15H-[1,4]oxazino[3,4-i]dipyrrolo[2,1-c:2′,1′-l][1]oxa[4,7,10,13]-tetraazacyclohexadecin-12-yl)propanamide] ({NH(4-Et-phenyl)-CO}-[Phe(3,5-F2)][aThr][Hyp][Morpholine(3S-CO)]A[Pro(4R-Me)]; ester 2-C)
- IC50 [1]: 7.48 ± 0.6 µM
- MIC [2, 6]: 0.625 µM (≈ 0.525 µg/mL)
- MIC [3]: 0.156 µM (≈ 0.131 µg/mL)
- MIC [4, 7]: 0.156 µM (≈ 0.131 µg/mL)
- MIC [5, 8]: 0.039 µM (≈ 0.0328 µg/mL)

Compound: C[C@@H]1C[C@H]2C(=O)OC[C@H](NC(=O)[C@H](Cc3ccccc3)NC(=O)Nc3ccc(OC(F)(F)F)cc3)C(=O)N3CCC[C@H]3C(=O)N3CCCC[C@H]3C(=O)N[C@@H](C)C(=O)N2C1 [Compound 205]
- IC50 [1]: 21.6 ± 1.4 µM
- MIC ([2]; B. subtilis ATCC 23857; read-out: Minimal Inhibitory Concentrations B. subtilis ATCC 23857): 0.2 µM (≈ 0.166 µg/mL)
- MIC [3]: 0.39 µM (≈ 0.323 µg/mL)
- MIC [4, 7]: 0.2 µM (≈ 0.166 µg/mL)
- MIC [5, 8]: 0.1 µM (≈ 0.0828 µg/mL)

Compound: Cc1ccc(NC(=O)N[C@@H](Cc2cc(F)cc(F)c2)C(=O)N[C@H]2COC(=O)[C@@H]3C[C@@H](C)CN3C(=O)[C@H](C)NC(=O)C([C@@H](C)O)N(C)C(=O)[C@@H]3CCCN3C2=O)cc1 (stereo partly drawn) [Compound 322, (S)-3-(3,5-difluorophenyl)-N-((2R,6S,9R,11aS,17S,20aS)-9-((R)-1-hydroxyethyl)-2,6,10-trimethyl-5,8,11,16,20-pentaoxohexadecahydro-1H,5H,16H-dipyrrolo[2,1-c:2′,1′-l][1]oxa[4,7,10,13]tetraazacyclohexadecin-17-yl)-2-(3-(p-tolyl)ureido)propanamide] ({NH(4-Me-phenyl)-CO}-[Phe(3,5-F2)]SP[ξNMeThr]A[Pro(4R-Me)]; ester 2-C)
- IC50 [1]: 8.54 ± 0.4 µM
- MIC [2, 9]: 0.078 µM (≈ 0.0622 µg/mL)
- MIC [4, 10]: 0.313 µM (≈ 0.25 µg/mL)
- MIC [5, 11]: 0.625 µM (≈ 0.499 µg/mL)

Compound: Cc1ccc(NC(=O)N[C@@H](Cc2cc(F)cc(F)c2)C(=O)N[C@@H]2C(=O)N3CCC[C@H]3C(=O)N3CCCC[C@H]3C(=O)N[C@@H](C)C(=O)N3C[C@H](C)C[C@H]3C(=O)O[C@H]2C)cc1 [Compound 209, (S)-3-(3,5-difluorophenyl)-2-(3-(p-tolyl)ureido)-N-((2R,6S,8aS,14aS,20S,21S,23aS)-2,6,21-trimethyl-5,8,14,19,23-pentaoxooctadecahydro-1H,5H,14H,19H-pyrido[2,1-i]dipyrrolo[2,1-c:2′,1′-l][1]oxa[4,7,10,13]tetraazacyclohexadecin-20-yl)propanamide] ({NH(4-Me-phenyl)-CO}-[Phe(3,5-F2)][aThr]P[Pip]A[Pro(4R-Me)]; ester 2-C)
- IC50 [1, 12]: 9 ± 0.4 µM
- MIC [2, 9]: 0.05 µM (≈ 0.0404 µg/mL)
- MIC [3]: 0.05 µM (≈ 0.0404 µg/mL)
- MIC [5, 11]: 0.2 µM (≈ 0.162 µg/mL)

Compound: Cc1ccc(NC(=O)N[C@@H](Cc2cc(F)cc(F)c2)C(=O)N[C@@H]2C(=O)N3CCC[C@H]3C(=O)N(C)[C@@H]([C@H](C)O)C(=O)N[C@@H](C)C(=O)N3C[C@H](C)C[C@H]3C(=O)O[C@H]2C)cc1 [Compound 208, (S)-3-(3,5-difluorophenyl)-N-((2R,6S,9S,11aS,17S,18S,20aS)-9-((S)-1-hydroxyethyl)-2,6,10,18-tetramethyl-5,8,11,16,20-pentaoxohexadecahydro-1H,5H,16H-dipyrrolo[2,1-c:2′,1′-l][1]oxa[4,7,10,13]tetraazacyclohexadecin-17-yl)-2-(3-(p-tolyl)ureido)propanamide] ({NH(4-Me-phenyl)-CO}-[Phe(3,5-F2)][aThr]P[NMeaThr]A[Pro(4R-Me)]; ester 2-C)
- IC50 [1, 12]: 6.52 ± 0.3 µM
- MIC [2, 9]: 0.05 µM (≈ 0.0406 µg/mL)
- MIC [3]: 0.05 µM (≈ 0.0406 µg/mL)
- MIC [5, 11]: 0.1 µM (≈ 0.0812 µg/mL)
